Test results: patent US7816555B2, “Peroxycarboxylic acid compositions with reduced odor” (Ecolab Inc., priority 2003, dated 2010)

Assay: pH of the mixtures
Format: physicochemical
Conditions: mixture at the stated moles of POAA, AA and AO-8
Experimental: Octyldimethylamine oxide was added to a peracid composition containing 15% peroxyacetic acid, 10% hydrogen peroxide, and about 40-45% acetic acid. The octyldimethylamine oxide was added at different levels, corresponding to differing molar ratios of peroxyacetic acid (POAA) to acetic acid (AA) to octyldimethylamine oxide (AO-8). The mixture was then compared for remaining odor. […] It was surprising that this reduction occurred even at pH too low for ion pair formation between the AO-8 and POAA, i.e. substantially below the 8.2 pKa of POAA.

CCCCCCCC[N+](C)(C)[O-] [AO-8, octyldimethylamine oxide]
mixture results: pH: 7.7
